Tested on: Genes belonging to other category
Test: DNA chip mRNA expression in yeast, genes belonging to other category (Table 9)
Format: cell-based, Saccharomyces cerevisiae S288C
Procedure, shortened: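 Cells were grown at 25° C. in YPD, treated at logarithmic phase for 2 h with a chemical at a concentration inhibiting growth but not causing death, and compared with untreated cultures. Labeled cDNA was hybridized to a DNA chip carrying all yeast genes, and the expression ratio was taken from scanner fluorescence.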

Measured: The level of expressed mRNA in the presence of chemical substance/The level of expressed mRNA in the absence of chemical substance

COc1cc(CNC(=O)CCCCC=CC(C)C)ccc1O [(12), 8-methyl-N-vanillyl-6-nonenamide]
2.4: yeast gene YKL165C
1.9: yeast gene YGR201C
2.5: yeast gene YOR117W
1.0: yeast gene YAR010C | yeast gene YCL067C | yeast gene YCR096C | yeast gene YDR259C | yeast gene YDR403W | yeast gene YEL042W | yeast gene YER021W | yeast gene YER130C | yeast gene YGL011C | yeast gene YGR036C | yeast gene YHR027C | yeast gene YHR161C | yeast gene YIL034C | yeast gene YIL140W | yeast gene YJL073W | yeast gene YJL164C | yeast gene YJL210W | yeast gene YJR049C | yeast gene YKL117W | yeast gene YLR078C | yeast gene YLR093C | yeast gene YLR118C | yeast gene YLR250W | yeast gene YLR391W | yeast gene YMR004W | yeast gene YMR104C | yeast gene YMR238W | yeast gene YMR314W | yeast gene YNL333W | yeast gene YPL230W | yeast gene YPR108W
0.8: yeast gene YCL027W | yeast gene YCR004C | yeast gene YDL197C | yeast gene YDR212W | yeast gene YDR329C | yeast gene YDR388W | yeast gene YDR515W | yeast gene YEL005C | yeast gene YEL066W | yeast gene YER048C | yeast gene YER100W | yeast gene YGL094C | yeast gene YGL150C | yeast gene YGR270W | yeast gene YHR071W | yeast gene YHR160C | yeast gene YHR171W | yeast gene YIL062C | yeast gene YIL075C | yeast gene YIL123W | yeast gene YJR004C | yeast gene YJR086W | yeast gene YJR091C | yeast gene YKL041W | yeast gene YKL139W | yeast gene YKR102W | yeast gene YLR080W | yeast gene YLR251W | yeast gene YLR362W | yeast gene YMR091C | yeast gene YNL147W | yeast gene YNL335W | yeast gene YNR010W | yeast gene YOR181W | yeast gene YOR229W | yeast gene YOR259C | yeast gene YOR265W | yeast gene YPR066W | yeast gene YPR140W | yeast gene YPR185W
0.9: yeast gene YBL043W | yeast gene YBL102W | yeast gene YBR212W | yeast gene YCR067C | yeast gene YDL119C | yeast gene YDL238C | yeast gene YDR115W | yeast gene YDR169C | yeast gene YDR188W | yeast gene YDR378C | yeast gene YDR481C | yeast gene YER039C | yeast gene YFL043C | yeast gene YGR023W | yeast gene YGR257C | yeast gene YHR004C | yeast gene YHR195W | yeast gene YKL039W | yeast gene YKL093W | yeast gene YKL193C | yeast gene YLR340W | yeast gene YMR053C | yeast gene YMR092C | yeast gene YMR094W | yeast gene YOR124C | yeast gene YOR261C | yeast gene YOR355W | yeast gene YPL109C | yeast gene YPL149W
3.1: yeast gene YBL078C
0.3: yeast gene YKL096W
2.2: yeast gene YLR178C
1.2: yeast gene YBR214W | yeast gene YDL008W | yeast gene YGR136W | yeast gene YJL089W | yeast gene YMR276W | yeast gene YNR069C | yeast gene YOR036W | yeast gene YPR103W
2.8: yeast gene YNL015W
1.6: yeast gene YBL005W-A | yeast gene YBL041W | yeast gene YDR085C | yeast gene YHR139C | yeast gene YLR120C
1.5: yeast gene YCL020W | yeast gene YKL008C | yeast gene YLR356W | yeast gene YMR219W | yeast gene YOR185C | yeast gene YOR198C | yeast gene YPL154C
1.4: yeast gene YDR055W | yeast gene YDR510W | yeast gene YLR327C | yeast gene YOR288C
10.6: yeast gene YGR213C
0.7: yeast gene YDR084C | yeast gene YDR432W | yeast gene YER107C | yeast gene YGL207W | yeast gene YGR279C | yeast gene YJL113W | yeast gene YKL013C | yeast gene YKL097W-A | yeast gene YMR275C | yeast gene YNL006W | yeast gene YNL007C | yeast gene YNR037C | yeast gene YOR132W | yeast gene YPL089C
1.3: yeast gene YCR088W | yeast gene YGL158W | yeast gene YGR189C | yeast gene YHR142W | yeast gene YLR136C | yeast gene YOR157C
1.1: yeast gene YCR071C | yeast gene YDR104C | yeast gene YDR358W | yeast gene YFL028C | yeast gene YGL229C | yeast gene YJL116C | yeast gene YKR014C | yeast gene YLR429W | yeast gene YMR226C | yeast gene YNL093W | yeast gene YOL013C | yeast gene YOL164W | yeast gene YOR383C
0.6: yeast gene YDR315C | yeast gene YFL022C

Source: US8192962B2, “Processes for detecting toxic substances” (Daikin Industries, Ltd., priority 2001, dated 2012)
